Laboratory results from patent US20150292045A1, “ALTERNATIVE USES FOR HBV ASSEMBLY EFFECTORS” (INDIANA UNIVERSITY RESEARCH AND TECHNOLOGY CORPORATION, priority 2012, published 2015).
Read-outs that look alike come from different tables or passages of the source.

What was measured:
HBV [1] = test: Suppression of secreted HBV DNA synthesis; type: cell-based; settings: Hepatitis B virus
Method: Antiviral activity was measured using an inducible HBV expression system, AD38 cells. (Ladner, S. K. et al., Antimicrob Agents Chemother 41, 1715-20 (1997)). Initial experiments tested the activity of 10 μM HAP (percentage viral assembly at 24 hour). For active molecules, effective concentrations were determined for suppression of HBV production by 50% and by 90%; this value is reported in μM. Compound toxicity was tested in the parent cell line, HepG2. This is reported as the concentration required to suppress cell growth by 50%, CC50 (in μM) and as the ratio of CC50/EC50, also known as the therapeutic index. As a control and for comparison, the results for the nucleoside analog 3TC (lamivudine) also described.
(§1) CpAMs were used to treat a transient transfection of huh7 cells. Cytoplasmic RNA was harvested and quantified by RT-per. The transfection system is described by Lentz and Loeb (Lentz and Loeb (2010) J Virol Methods 169, 52-60.) Fresh medium with drug was added to cultured cells daily for four days at concentrations from 0.001 to 10 micromolar. The two points at 0.00001 are both controls where there was no drug and no DMSO. The controls and the DMSO-treated cells had similar amounts of RNA. […] (See FIG. 7)

HBV RNA = test: Transient transfection of Huh-7 cells, cytoplasmic RNA quantified by RT-PCR; type: cell-based, hepatitis B virus; settings: for EC50: Hepatitis B virus
Method: FIG. 7 Several compounds were used to treat a transient transfection of Huh-7 cells (Huh-7 is a well differentiated hepatocyte derived cellular carcinoma cell line). Cytoplasmic RNA was harvested and quantified by RT-per. Treatment/dynamic range/ED50: DMSO/1.6/NA; AT130/25/0.5 μM; HAP13/20/5 μM; HAP12/36/0.5 μM.
as §1

HBV [2] = test: AD38 stable cell line (tetracycline removal): cytoplasmic core particle HBV DNA and pgRNA; type: cell-based, hepatitis B virus genotype D; settings: AD38 cells, treatment started at day 0 or day 6
Source text: FIG. 5 HAP12 targets cccDNA transcription in AD38 cells. […] The cccDNA pool is built up from the recycling of mature core particles to the nucleus after HBV replication is started from the pgRNA initially transcribed from the “tet-regulated” HBV integrated DNA (b). HAP12 treatment is started at day 0 (left panels) or day 6 (right panels). c) Cytoplasmic HBV core particles, and total mRNAs (d) were isolated from untreated and HAP12-treated cells at the indicated time points. HBV DNA, cccDNA and pgRNA results are expressed as in FIG. 2. All histograms show mean values from two independent experiments; bars indicate standard deviations (SD).
(§2) The activity of the hetero-aryl-dihydropyrimidine HAP12 compound on capsid-associated HBV-DNA (TaqMan real-time PCR), cccDNA (TaqMan real-time PCR) (Werle-Lapostolle, Gastroenterology 2004) and pgRNA levels (quantitative realtime PCR) (Belloni, PNAS 2009) were assessed in three in vitro HBV replication models:
c) the AD38 cells are a stable HepG2-derived HBV genotype D clone that, upon tetracycline removal, expresses pgRNA,
assembles subviral particles in the cytoplasm, accumulates cccDNA in the nucleus and secretes HBV virions in the cell supernatant (Ladner, J Virol 1997).

HBV [3] = test: HepG2 cells transfected with linear full-length HBV DNA: capsid-associated HBV-DNA, cccDNA and pgRNA by real-time PCR; type: cell-based, hepatitis B virus genotype A
Source text: a) In HepG2 cells transfected with monomeric linear full length HBV pgRNA and HBV replication are dependent on cccDNA formation, chromatinization and transcription. b) Cytoplasmic HBV core particles were isolated from untreated and HAP12-treated cells at the indicated time points after transfection. Results are expressed as number of HBV DNA copies per transfected cells. c) cccDNA accumulation in untreated and HAP12-treated HepG2 cells transfected with wild type HBV genomes. qPCR analysis was performed using selective cccDNA primers to amplify cccDNA and beta-globin primers to normalize the DNA samples. Results are expressed as number of cccDNA copies per transfected cells. d) mRNAs were prepared from untreated and […] HepG2 cells transfected with wild type HBV genomes and harvested at the indicated times post-transfection. Specific primers were utilized to quantify the HBV pregenomic RNA and GAPDH amplification was used to normalize for equal loading of each RNA sample. All histograms show mean values from two independent experiments; bars indicate standard deviations (SD)
as §2
a) HepG2 cells transfected with a linear full-length genotype A HBV DNA (Gunther, J Virol 1995; Pollicino, Gastroenterology 2006);

[4] = system: HBc binding to the cccDNA; test: cccDNA ChIP assay in HepG2 H1.3 cells; type: cell-based, hepatitis B virus; settings: 10 days treatment
Source text: FIG. 6 HAP12 interferes with HBc binding to the cccDNA. It is herein described that using a cccDNA ChIP assay (a), that HBc is recruited onto the cccDNA in HBV replicating HepG2 cells (b) and in the HepG2 H1.3 stable cell line. […] It is believe that this finding is in agreement with the observed inhibition of cccDNA transcription and pgRNA production in HAP12 treated cells. HAP12 treatment is started at day 10 of HepG2 H1.3 cells “differentiation” (see legend to FIG. 3). Cross-linked chromatin was prepared from untreated and HAP12-treated cells at TO (before treatment, 10 gg “differentiation”) and at T10 (10 days of exposure to HAP12, 20 gg from beginning of […], #H1905-15). ChIPped chromatin was analyzed by qPCR with HBV cccDNA selective primers. Results are expressed as % of input. Histograms show mean values from two independent experiments; bars indicate standard deviations (SD).
Recruitment of HBc and cccDNA bound histones modifications were assessed using the cccDNA ChIP assay (Pollicino, 2006)

HBV [5] = test: HepG2 H1.3 HBV stable clone: capsid-associated HBV-DNA, cccDNA and pgRNA by real-time PCR; type: cell-based, hepatitis B virus genotype D
Source text: HAP12 treatment is started at day 10 of “differentiation” when HBV replication is high and the cccDNA pool is expanded. pgRNA is transcribed from both cccDNA and integrated HBV. b) Cytoplasmic HBV core particles, nuclear cccDNA (c) and total mRNAs (d) were isolated from untreated and HAP12-treated cells at the indicated time points. HBV-DNA, cccDNA and pgRNA results are expressed as in FIG. 2. Histograms show mean values from two independent experiments; bars indicate standard deviations (SD).
By treating the HepG2 H1.3 cells with HAP12 before the establishment of the cccDNA pool it was shown that cccDNA formation and accumulation […] by HAP12. Under these conditions the effect on HBV replication is maximal. a) HAP12 treatment is started at day 0 of “differentiation” when HBV replication and cccDNA levels are very low. b) Cytoplasmic HBV core particles, nuclear cccDNA (c) and total mRNAs (d) were isolated from untreated and HAP12-treated cells at the indicated time points. HBV-DNA, cccDNA and pgRNA results are expressed as in FIG. 2. Histograms show mean values from two independent experiments; bars indicate standard deviations (SD).
as §2
b) the HepG2 H1.3 genotype D HBV stable clone that accumulates cccDNA when cultured in “conditioned” medium at high confluence (Protzer, Gastroenterology 2007; Lucifora, J Hepatol 2011);

[6] = Huh-7, 96 h, huh7 transient transfection, drug daily for four days, read-out: EC50 for RNA suppression
[7] = Huh-7 transient transfection, read-out: ED50 (cytoplasmic RNA)
[8] = HepG2 H1.3, treatment started at day 0, before establishment of the cccDNA pool
[9] = HepG2 H1.3, treatment started at day 10 of differentiation

Row | SMILES | EC50 (HBV [1]) | EC50 (HBV RNA; [6]) | EC50 (HBV RNA; [7]) | dynamic range (cytoplasmic RNA) (HBV RNA; Huh-7 transient transfection) | effect on HBV replication (HBV [2]) | effect on pgRNA transcription (HBV [2]) | decrease in cccDNA levels (HBV [3]) | suppression of HBV replication (HBV [3]; 72 and 96 hrs) | peak reduction of pgRNA transcription (HBV [3]; at 96 hours) | cccDNA HBc occupancy [4] | cccDNA-bound H3 histone acetylation [4] | cccDNA formation/accumulation (HBV [5]; [8]) | effect on HBV replication (HBV [5]; [8]) | effect on HBV replication (HBV [5]; [9]) | effect on pgRNA transcription (HBV [5]; [9])
1 | COC(=O)C1=C(CN2CCNCC2)NC(c2ccccn2)=NC1c1ccc(F)cc1Cl (centres unmarked) [HAP13] | 6100 nM | 5000 nM | 5000 nM | 20 | – | – | – | – | – | – | – | – | – | – | –
2 | COc1ccccc1/C(Br)=C(\NC(=O)c1ccc([N+](=O)[O-])cc1)C(=O)N1CCCCC1 [AT130, (E)-N-(1-Bromo-1-(2-methoxyphenyl)-3-oxo-3-(piperidin-1-yl)prop-1-en-2-yl)-4-nitrobenzamide] | 2400 nM | 500 nM | 500 nM | 25 | – | – | – | – | – | – | – | – | – | – | –
3 | COC(=O)C1=C(CN2CCOCC2)NC(c2ccccn2)=NC1c1ccc(F)cc1Cl (centres unmarked) [HAP12] | 12 nM | 500 nM | 500 nM | 36 | inhibitory effect | inhibitory effect | ~30% | complete suppression | > 50% | strongly inhibited | sharp decrease | does not prevent | maximal | inhibitory effect | inhibitory effect
